According to EP4799617A1, “PHARMACEUTICAL COMPOSITION HAVING JAK INHIBITORY EFFECT” (Orxes Chinese Medicine (Shanghai) Co., Ltd., priority 2024, dated 2025):

Columns and labels:
[1] = test system: mice with cyclophosphamide-induced alopecia areata; assay: Preventive effect on hair loss in cyclophosphamide-induced alopecia areata (dorsal images); assay type: in vivo; conditions: gavage, Day 7 after CP injection, versus model group
Protocol: (§1) On Day 9 of administration in the aforementioned experiment, cyclophosphamide (abbreviated as CP) was intraperitoneally injected to each mouse in the model group (not administered with CE and/or BT), the CE (15 mg/kg) group, the CE (30 mg/kg) group, the BT (1 mg/kg) group, and the CE+BT (15+0.5 mg/kg) group to establish the AA model. The method for establishing the model is described in the literature: "Effect of CeO2 Nanoenzyme on Hair Growth of Mice with Cyclophosphamide-Induced Alopecia Areata", PENG Xinxin et al., J Shanxi Med Univ, Feb. 2024, Vol. 55, No. 2, p.192.
Whether the model has been successfully established was determined by observing the hair loss in each group of mice, wherein the onset of hair loss indicated the successful model establishment.
Images of the dorsal region of the mice were captured on Day 9 of administration (Day 0 after CP injection), Day 14 (Day 5after CP injection), and Day 16 (Day 7 after CP injection). In Figure 2, gavage administration was used for administering CE and/or BT to the mice in the CE (15 mg/kg) group, the CE (30 mg/kg) group, the BT (1 mg/kg) group, and the CE+BT (15+0.5 mg/kg) group; and intraperitoneal injection was used for administering CP to the mice in the model group, the CE (15 mg/kg) group, the CE (30 mg/kg) group, the BT (1 mg/kg) group, and the CE+BT (15+0.5 mg/kg) group. […]

C57/BL-6 mice = assay: Hair growth of depilated mice after 9 days of gavage administration (dorsal images, hair score by IMAGE J); assay type: in vivo; conditions: first 9 days after depilation
Protocol: (§2) 60 male C57/BL-6 mice aged 6-8 weeks were evenly divided into 6 groups with 10 mice per group. These groups were: a control group, a model group, a CE (15 mg/kg) group, a CE (30 mg/kg) group, a BT (1 mg/kg) group, and a CE+BT (15+0.5 mg/kg) group. After 1 week of normal feeding, the dorsal hair of the mice was shaved using a depilatory device to prepare the skin (2×3 cm^2). Then, depilatory cream was applied to the prepared skin area to ensure complete removal of the hair on the back of the mice. From the day after depilation, each group of mice was administered once daily by gavage.
The substances to be administered were prepared as follows: The aqueous solution of 0.5% sodium carboxymethylcellulose: First, 0.5 g of sodium carboxymethylcellulose powder was added to 100 mL of distilled water, and then the mixture was placed in a water bath and heated at 60-70 °C. […]
Images of the dorsal region of the mice were captured at key time points of hair growth (i.e. Day 0 and Day 9), respectively. In addition, the gray values in the depilated areas on the dorsal region of the mice in Figure a were analyzed using IMAGE J software (National Institutes of Health, USA) to obtain hair scores. In Figure b, the hair scores represent the quantified gray values of the hair on the back skin of the mice.

[2] = test system: mice with cyclophosphamide-induced alopecia areata; assay: Hair length (vernier caliper) and hair weight (balance) after the final administration; assay type: in vivo; conditions: gavage once daily, after final administration (Day 28); for Hair length: CP-induced alopecia areata mice; for Hair weight: regrown hair of depilated area
Protocol: as §2, §1
After the final administration (on Day 28), the length of dorsal hair of the mice in each group was measured using a vernier caliper. Subsequently, the regrown hair in the original depilated area was removed using a depilatory device, and was weighed using a balance. Table 2 Effects of CE, BT and CE+BT on hair length and hair weight in the mice with cyclophosphamide-induced alopecia areata

[3] = test system: JAK3/STAT3 signaling pathway; assay: Western blotting of p-JAK3/JAK3 and p-STAT3/STAT3 in mouse skin tissue; assay type: in vivo, mice; conditions: Western blot gray values, versus model group
Protocol: The expression levels of p-JAK3/JAK3 and p-STAT3/STAT3 proteins were detected by Western blotting using the half of the skin samples that were stored in the freezer at -80°C as described in Example 2. • p-JAK3: purchased from Absin, Cat No.: abs139988; • JAK3: purchased from Absin, Cat No.: abs115170; • p-STAT3: purchased from Absin, Cat No.: abs130919; • STAT3: purchased from Absin, Cat No.: abs155916.
The mouse skin samples stored at -80°C were taken out. 50 mg of skin tissue was cut with surgical scissors from each sample and respectively placed into 2 mL EP tubes. 500 µL of RIPA lysis buffer (available from Servicebio, Cat No.: G2002-100ML) (containing 5µL of protease inhibitor PMSF, available from Servicebio, Cat No.: G2008-1ML) was added to each EP tube. The skin was then disrupted by a cell grinding rod that is inserted into the 2 mL EP tube. […]
The total protein concentration in the supernatant was determined using a BCA kit (G2026-200T, Servicebio) following the protocol in the instruction manual. […]
The previously prepared resolving gel and stacking gel were clamped onto the main body of the gel-casting apparatus, with the stacking gel on the top and the resolving gel on the bottom. […] The gel casting apparatus was then disassembled and placed in the transfer buffer (Cat No.: G2028-1L, available from Servicebio) to be ready for subsequent membrane transfer procedure. […]

SMILES	hair loss ([1]; CE 15 mg/kg)	hair loss ([1]; CE 30 mg/kg)	hair growth (C57/BL-6 mice; CE 15 mg/kg)	hair growth (C57/BL-6 mice; CE 30 mg/kg)	Hair length ([2]; CE 15 mg/kg)	Hair weight ([2]; CE 15 mg/kg)	Hair length ([2]; CE 30 mg/kg)	Hair weight ([2]; CE 30 mg/kg)	relative viabilities of p-JAK3/JAK3 and p-STAT3/STAT3 ([3]; CE 15 mg/kg)	relative viabilities of p-JAK3/JAK3 and p-STAT3/STAT3 ([3]; CE 30 mg/kg)	Hair length ([2]; BT 1 mg/kg)	Hair weight ([2]; BT 1 mg/kg)
C[C@@H]1CC[C@H]2C(C)(C)[C@H]3C[C@@]12CC[C@@]3(C)O [CE, cedrol]	significantly better than that of the model group	significantly better than that of the model group	significant hair growth	significant hair growth	5.98±1.22 mm	35.38 ± 6.88 mg	6.78±1.32 mm	43.51 ± 6.45 mg	significantly different from that in the model group	significantly different from that in the model group	–	–
CCS(=O)(=O)N1CC(CC#N)(n2cc(-c3ncnc4[nH]ccc34)cn2)C1 [BT, baricitinib]	–	–	–	–	–	–	–	–	–	–	6.51±0.61 mm	38.62 ± 6.02 mg
